# Measurements: article PMC11695783 (Frontiers in Pharmacology, 2024)
# Where “and” joins values, the source holds several entries; their conditions need not be identical. Equal entries are not always repeated.
# Assay: Pharmacokinetic studies in mice (intravenous and intramuscular, plasma, HPLC-MS/MS)
# Format: in vivo, BALB/c mice
# Parameters: AUClast / AUCall / AUCINF_obs / AUCINF_pred / AUCINFobs: concentration or dose not given beside the values; Tlast / Clast / AUMClast / AUMCINF_obs / AUMCINF_pred / Lambda_z / HL_Lambda_z / Cl_obs / Cl_pred / Cl_F_obs / Tlag / Cl_F_pred: unit not given here
# Details: IV; for plasma concentration: individual mice 1-8; for plasma concentration, AV: average of mice
# Method: Pharmacokinetic experimental procedures of compound 16C were measured according to previous reports with some modifications ([Wang et al., 2022]). In brief, BALB/c mice were divided into two groups of eight mice each; one group was injected intravenously and the other was injected intramuscularly with compound 16C at a dose of 10 mg/kg. The dose was based on previous studies of novel pleuromutilin derivatives ([Jin et al., 2019]; [Wang et al., 2022]). Meanwhile, the dose of tiamulin approved by the European Union for intramuscular administration is 10–20 mg/kg ([EMA, 1999]). The volume of the injection was 0.1 mL/10 g. The compound 16C formulation was a filtered solution in 5% DMSO, 5% Tween-80, and 90% normal saline. Blood was obtained from eight mice via the ocular venous plexus at 0.083, 0.167, 0.25, 0.334, 0.5, 0.75, 1, 1.5, 2, 3, 4, 6, 8, and 12 h following tail intravenous or thigh Intramuscular injection. A glass capillary with a diameter of 0.3 mm was inserted into the outer canthus of the mouse, and 200 μL blood was collected using a 1.5 mL anticoagulant centrifuge tube. The blood was centrifuged at 3,000 rpm for 10 min to obtain plasma. 100 μL of plasma was aspirated for drug concentration detection, and eight parallel samples from different mice were obtained at each time point.
# All pharmacokinetic experimental samples and method validation samples were added with 4 times the volume of acetonitrile and shaken for 1 min, centrifuged at high speed at 13,000× g for 10 min, and the supernatants were taken and filtered to detect the drug concentration. Some samples with high concentrations were diluted to the linear range prior to analysis.
# The extracted samples were analyzed using a high-performance liquid chromatography-tandem mass spectrometry (HPLC-MS/MS) system (Agilent, Santa Clara, CA, United States) 1200 HPLC and Applied Biosystems (Waltham, MA, United States) API 4000 mass spectrometer). HPLC-MS/MS analysis using a Zorbax Eclipse XDB-C18 (4.6 × 50 mm, 3.5 μm) column (Agilent). The mobile phase A (acetonitrile) and B (water) were applied as a gradient as follows: 0–3 min: 15%–95% A and maintain from 3 min to 5 min at 95% A. 5–5.1 min: 95%–15% A and maintain from 5.1 to 10 min at 15% A. Flow rate: 500 μL/min; column temperature: 30°C and injection volume: 4 μL. The electrospray ionization (ESI) source of the mass spectrometer was operated in […], with the following ion source parameters: ion spray voltage 4,500 V, collision gas 7 psi, ion source gas 1 55 psi, ion source gas 2 40 psi, curtain gas 20 psi, source temperature 600°C. The precursor ion m/z of Compound 16C was 633.3, and the product ions m/z were 272.0 (quantifier) 286.9 and 313.0. Declustering potentials (DP) were 140, 140, and 144 V, respectively; entrance potential (EP) was 10 V; collision energy (CE) was 55, 46, and 15 V, respectively; and collision cell exit potential (CXP) was 14 V.
# […] Pharmacokinetic parameters include time to maximum concentration (Tmax), maximum concentration (Cmax), the area under the plasma concentration–time curve (AUC0-∞), clearance rate (CL), the apparent volume of distribution (Vd), bioavailability (F), elimination half-life (T1/2kel) and absorption half-life (T1/2ka).
smiles,measurement,setting,value
C=C[C@]1(C)C[C@@H](OC(=O)CSc2ccc(NC(=O)Cc3ccc([N+](=O)[O-])cc3)cc2)[C@]2(C)[C@H](C)CC[C@]3(CCC(=O)[C@H]32)[C@@H](C)[C@@H]1O,plasma concentration,0.083h,4.18 ng/mL and 5.51 ng/mL and 3.62 ng/mL and 4.5 ng/mL and 6.77 ng/mL and 4.82 ng/mL and 6.27 ng/mL and 4.14 ng/mL
same,"plasma concentration, AV",0.17h,2.954 ng/mL
same,plasma concentration,0.17h,2.24 ng/mL and 3.08 ng/mL and 2.67 ng/mL and 1.93 ng/mL and 4.06 ng/mL and 3.1 ng/mL and 3.5 ng/mL and 3.05 ng/mL
same,"plasma concentration, AV",0.25h,1.9525 ng/mL
same,plasma concentration,0.25h,1.53 ng/mL and 1.91 ng/mL and 1.97 ng/mL and 1.44 ng/mL and 2.52 ng/mL and 1.83 ng/mL and 2.17 ng/mL and 2.25 ng/mL
same,"plasma concentration, AV",0.33h,1.413 ng/mL
same,plasma concentration,0.33h,1.05 ng/mL and 1.59 ng/mL and 1.43 ng/mL and 0.752 ng/mL and 1.83 ng/mL and 1.19 ng/mL and 1.81 ng/mL and 1.65 ng/mL
same,"plasma concentration, AV",0.5h,0.9296 ng/mL
same,plasma concentration,0.5h,0.563 ng/mL and 0.856 ng/mL and 1.02 ng/mL and 0.564 ng/mL and 1.49 ng/mL and 0.788 ng/mL and 0.986 ng/mL and 1.17 ng/mL
same,"plasma concentration, AV",0.75h,0.4375 ng/mL
same,plasma concentration,0.75h,0.295 ng/mL and 0.454 ng/mL and 0.34 ng/mL and 0.281 ng/mL
same,"plasma concentration, AV",1h,0.1263 ng/mL
same,"plasma concentration, AV",1.5h,0.0633 ng/mL
same,"plasma concentration, AV",2h,0.03673 ng/mL
same,"plasma concentration, AV",3h,0.01748 ng/mL
same,"plasma concentration, AV",4h,0.01406 ng/mL
same,"plasma concentration, AV",6h,0.005976 ng/mL
same,"plasma concentration, AV",8h,0.004256 ng/mL
same,"plasma concentration, AV",12h,0.002617 ng/mL
same,AUCINF_obs,individual mice,1731 and 1454.8 and 1871.31 and 1501.72 and 1496.6 and 2594.18 and 1738.12 and 2317.09
same,AUCINF_pred,individual mice,1730.96 and 1454.56 and 1871.3 and 1501.69 and 1496.6 and 2594.16 and 1737.96 and 2317.08
same,AUC_%Back_Ext_obs,individual mice,23.2101% and 33.5458% and 33.5029% and 23.3787% and 40.4621% and 28.4699% and 29.0426% and 30.8151%
same,AUC_%Back_Ext_pred,individual mice,23.2107% and 33.5513% and 33.5032% and 23.3791% and 40.462% and 28.47% and 29.0454% and 30.8152%
same,AUC_%Extrap_obs,individual mice,1.0811% and 0.9306% and 0.1046% and 0.8821% and 0.3771% and 0.7545% and 1.237% and 1.2773%
same,AUC_%Extrap_pred,individual mice,1.0785% and 0.9144% and 0.1039% and 0.8804% and 0.3773% and 0.754% and 1.2276% and 1.277%
same,AUCall,individual mice,1712.29 and 1441.26 and 1869.35 and 1488.47 and 1490.96 and 2574.6 and 1716.62 and 2287.49
same,AUClast,individual mice,1712.29 and 1441.26 and 1869.35 and 1488.47 and 1490.96 and 2574.6 and 1716.62 and 2287.49
same,AUMCINF_obs,individual mice,945.518 and 756.201 and 591.051 and 764.612 and 715.375 and 1415.53 and 1084.7 and 1445.93
same,AUMCINF_pred,individual mice,944.931 and 753.432 and 590.916 and 764.278 and 715.413 and 1415.38 and 1082.77 and 1445.86
same,AUMC_%Extrap_obs,individual mice,25.4794% and 20.837% and 3.3902% and 21.6397% and 12.7428% and 15.3656% and 22.9491% and 23.7174%
same,AUMC_%Extrap_pred,individual mice,25.4331% and 20.546% and 3.368% and 21.6055% and 12.7474% and 15.3562% and 22.812% and 23.7133%
same,AUMClast,individual mice,704.605 and 598.632 and 571.014 and 599.152 and 624.216 and 1198.03 and 835.77 and 1103
same,C0,individual mice,5541.15 and 7579.63 and 9597.07 and 4839.8 and 10091.7 and 11026.6 and 7343.77 and 10935.2
same,Cl_obs,individual mice,0.0069 and 0.0053 and 0.0067 and 0.0039 and 0.0058 and 4315.76
same,Cl_pred,individual mice,0.0069 and 0.0053 and 0.0067 and 0.0039 and 0.0058 and 4315.77
same,Clast,individual mice,3.84 and 3.72 and 0.875 and 2.95 and 1.36 and 6.29 and 6.01 and 8.25
same,Cmax,individual mice,4140 and 4180 and 5510 and 3620 and 4500 and 6770 and 4820 and 6270
same,HL_Lambda_z,individual mice,3.378 and 2.5225 and 1.5506 and 3.1126 and 2.8768 and 2.157 and 2.4798 and 2.4866
same,Tlast,individual mice,8 and 12
same,Cmax_D,"individual mice, dose-normalised, in µg/mL",0.0004 and 418 and 551 and 362 and 450 and 677 and 482
same,Lambda_z,"individual mice, non-compartmental analysis",0.2052 and 0.2748 and 0.447 and 0.2227 and 0.2409 and 0.3213 and 0.2795 and 0.2788
same,MRTINF_obs,"individual mice, in h",0.5462 and 0.5198 and 0.3158 and 0.5092 and 0.478 and 0.5457 and 0.6241 and 0.624
same,MRTINF_pred,"individual mice, in h",0.5459 and 0.518 and 0.3158 and 0.5089 and 0.478 and 0.5456 and 0.623 and 0.624
same,MRTlast,"individual mice, in h",0.4115 and 0.4154 and 0.3055 and 0.4025 and 0.4187 and 0.4653 and 0.4869 and 0.4822
same,Tmax,"individual mice, in h",0.083
